This passage reports EC50 results from patent US12617795B2, “Substituted 6,7-dihydro-5H-pyrrolo[3,4-d]pyrimidines, 5,7-dihydrofuro[3,4-d]pyrimidines, and pyrido[2,3-d]pyrimidines as KCC2 modulators” (Astrazeneca AB, priority 2020, dated 2026).

This assay deals with T1, KCC2 (Homo sapiens, UniProt Q9H2X9).
T1 construct: expressed in transfected cells; host or cells: HEK293 cells electroporated (Maxcyte STX) with the pcDNA3.1 KCC2 plasmid
T1 sequence (Q9H2X9 1-1139): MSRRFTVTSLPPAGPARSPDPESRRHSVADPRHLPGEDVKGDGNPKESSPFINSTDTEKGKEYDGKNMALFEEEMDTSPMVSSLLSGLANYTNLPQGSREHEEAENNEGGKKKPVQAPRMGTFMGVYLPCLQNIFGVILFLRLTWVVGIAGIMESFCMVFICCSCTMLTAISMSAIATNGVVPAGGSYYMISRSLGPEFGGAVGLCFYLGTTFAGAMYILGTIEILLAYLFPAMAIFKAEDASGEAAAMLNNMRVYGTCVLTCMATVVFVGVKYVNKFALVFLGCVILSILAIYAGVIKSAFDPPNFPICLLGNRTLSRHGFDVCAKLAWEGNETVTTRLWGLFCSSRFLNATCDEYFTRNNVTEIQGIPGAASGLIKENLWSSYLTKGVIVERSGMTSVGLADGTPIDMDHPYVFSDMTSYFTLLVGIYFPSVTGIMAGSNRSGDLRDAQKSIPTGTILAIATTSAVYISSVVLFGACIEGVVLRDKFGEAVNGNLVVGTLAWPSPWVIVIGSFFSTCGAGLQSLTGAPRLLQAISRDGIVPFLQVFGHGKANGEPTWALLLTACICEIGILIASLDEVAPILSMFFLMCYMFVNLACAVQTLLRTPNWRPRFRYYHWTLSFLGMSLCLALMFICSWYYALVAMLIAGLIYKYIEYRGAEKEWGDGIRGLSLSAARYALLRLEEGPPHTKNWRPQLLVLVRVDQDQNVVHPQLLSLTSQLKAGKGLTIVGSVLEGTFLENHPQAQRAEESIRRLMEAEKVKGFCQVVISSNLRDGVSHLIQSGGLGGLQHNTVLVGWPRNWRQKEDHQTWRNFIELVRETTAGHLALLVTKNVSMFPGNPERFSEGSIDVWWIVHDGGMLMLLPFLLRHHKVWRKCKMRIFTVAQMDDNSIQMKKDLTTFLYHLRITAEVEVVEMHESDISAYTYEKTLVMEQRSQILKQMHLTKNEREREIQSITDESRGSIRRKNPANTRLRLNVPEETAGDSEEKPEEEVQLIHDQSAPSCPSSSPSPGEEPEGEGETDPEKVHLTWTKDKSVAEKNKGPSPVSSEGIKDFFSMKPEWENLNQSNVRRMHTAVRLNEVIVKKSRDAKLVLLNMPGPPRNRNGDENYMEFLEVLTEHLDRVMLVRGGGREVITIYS
The experiment in a line: KCC2 thallium transport FLIPR-based assay (Tl+ influx in HEK293 cells expressing KCC2). Conditions: 90 min compound incubation at RT, thallium flux at 120 s used to determine EC50. The assay is classed as cell-based. A digest of the protocol: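 Transient electroporation of codon-optimised human KCC2 into HEK293 cells, plated and cultured 48 h before dye loading (1 h, RT). Compounds run as a 12-point 1:2 series from 100 μM top, 90 min RT in buffer containing bumetanide; Tl+ flux read by FLIPR after stimulus addition, 1 s intervals over 120 s, with the 120 s signal used for EC50.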
With `CC(C)C1CN(c2nc(Nc3ccc(C4CCCCC4)cc3)c3c(n2)C(=O)N(C(C)C)C3)CCO1` (stereo not drawn) [Example 18, 4-[(4-cyclohexylphenyl)amino]-6-(propan-2-yl)-2-[2-(propan-2-yl)morpholin-4-yl]-5,6-dihydro-7H-pyrrolo[3,4-d]pyrimidin-7-one], the EC50 stood at 1.39 µM.

`CC(C)Oc1ccc(Nc2nc(N3CCOC(C4CC4)C3)nc3c2CN(C(C)C)C3=O)cc1` (stereo not drawn) [Example 62, 2-(2-cyclopropylmorpholin-4-yl)-6-(propan-2-yl)-4-({4-[(propan-2-yl)oxy]phenyl}amino)-5,6-dihydro-7H-pyrrolo[3,4-d]pyrimidin-7-one] registered an EC50 of 5.66 µM. The value for `CC(C)N1Cc2c(Nc3ccc(C4CCCCC4)cc3)nc(N3CCOC(C4CC4)C3)nc2C1=O` (single isomer, unassigned) [Example 15, 4-[(4-cyclohexylphenyl)amino]-2-(2-cyclopropylmorpholin-4-yl)-6-(propan-2-yl)-5,6-dihydro-7H-pyrrolo[3,4-d]pyrimidin-7-one] was 0.769 µM; that for `CC(C)N1Cc2c(Nc3ccc(C4CCCCC4)cc3)nc(N3CCOC4(CCOCC4)C3)nc2C1=O` [Example 25, 4-[(4-cyclohexylphenyl)amino]-2-(1,9-dioxa-4-azaspiro[5.5]undecan-4-yl)-6-(propan-2-yl)-5,6-dihydro-7H-pyrrolo[3,4-d]pyrimidin-7-one] was 3.41 µM. The value for `C[C@@H]1CN(c2nc(Nc3ccc(C4CCCCC4)cc3)c3c(n2)C(=O)N(CCCN(C)C)C3)CCO1` [Example 72, (R)-4-((4-cyclohexylphenyl)amino)-6-(3-(dimethylamino)propyl)-2-(2-methylmorpholino)-5,6-dihydro-7H-pyrrolo[3,4-d]pyrimidin-7-one] was 1.53 µM; that for `CC(C)N1Cc2c(Nc3ccc(C4CCCCC4)cc3)nc(-c3cncs3)nc2C1=O` [Example 49, 4-[(4-cyclohexylphenyl)amino]-6-(propan-2-yl)-2-(1,3-thiazol-5-yl)-5,6-dihydro-7H-pyrrolo[3,4-d]pyrimidin-7-one] was 6.3 µM; that for `C#CCN1Cc2c(Nc3ccc(C(C)C)cc3)nc(N3CCOCC3)nc2C1=O` [Example 76, 2-(morpholin-4-yl)-4-{[4-(propan-2-yl)phenyl]amino}-6-(prop-2-yn-1-yl)-5,6-dihydro-7H-pyrrolo[3,4-d]pyrimidin-7-one] was 6.89 µM.

As for `CC(C)N1Cc2c(Nc3ccc(-c4ccc(OCCNC(=O)OC(C)(C)C)cc4)cc3)nc(N3CCOC(C4CC4)C3)nc2C1=O` (stereo not drawn) [Example 66, tert-butyl {2-[(4′-{[2-(2-cyclopropylmorpholin-4-yl)-7-oxo-6-(propan-2-yl)-6,7-dihydro-5H-pyrrolo[3,4-d]pyrimidin-4-yl]amino}[1,1′-biphenyl]-4-yl)oxy]ethyl}carbamate], the EC50 worked out at 0.917 µM.

For the molecule `CC(C)N1Cc2c(Nc3ccc(C4CCCCC4)cc3)nc(N3CCOC[C@H]3C(=O)O)nc2C1=O` [Example 38, (3S)-4-{4-[(4-cyclohexylphenyl)amino]-7-oxo-6-(propan-2-yl)-6,7-dihydro-5H-pyrrolo[3,4-d]pyrimidin-2-yl}morpholine-3-carboxylic acid], it took 9.34 µM to reach a half-maximal effect (EC50).

In turn, `CC(C)N1Cc2c(Nc3ccc(C(F)(F)C(F)(F)F)cc3)nc(N3CCO[C@H](C)C3)nc2C1=O` [Example 61, 2-[(2R)-2-methylmorpholin-4-yl]-4-{[4-(pentafluoroethyl)phenyl]amino}-6-(propan-2-yl)-5,6-dihydro-7H-pyrrolo[3,4-d]pyrimidin-7-one] yielded an EC50 of 5.51 µM.

`CC(C)N1Cc2c(Nc3ccc(-c4ccc(Cl)c(Cl)c4)cc3)nc(N3CCOCC3)nc2C1=O` [Example 85, 4-[(3′,4′-dichloro[1,1′-biphenyl]-4-yl)amino]-2-(morpholin-4-yl)-6-(propan-2-yl)-5,6-dihydro-7H-pyrrolo[3,4-d]pyrimidin-7-one]: the EC50 turned out to be 8.41 µM. In the case of `CC(C)c1ccc(Nc2nc(N3CCSCC3)nc3c2CN(C(C)C)C3=O)cc1` [Example 5, 6-(propan-2-yl)-4-{[4-(propan-2-yl)phenyl]amino}-2-(thiomorpholin-4-yl)-5,6-dihydro-7H-pyrrolo[3,4-d]pyrimidin-7-one], the EC50 came out at 3.77 µM.

Molecule `CC(C)N1Cc2c(Nc3ccc(C4CCCCC4)cc3)nc(C3=CCOCC3)nc2C1=O` [Example 45, 4-[(4-cyclohexylphenyl)amino]-2-(3,6-dihydro-2H-pyran-4-yl)-6-(propan-2-yl)-5,6-dihydro-7H-pyrrolo[3,4-d]pyrimidin-7-one] came in with a 50% effective concentration (EC50) of 1.15 µM. With `Cc1cc(Nc2nc(N3CCOCC3)nc3c2CN(C(C)C)C3=O)ccc1-c1ccccc1` [Example 88, 4-[(2-methyl[1,1′-biphenyl]-4-yl)amino]-2-(morpholin-4-yl)-6-(propan-2-yl)-5,6-dihydro-7H-pyrrolo[3,4-d]pyrimidin-7-one] the figure was 3.52 µM. The value for `CCCc1ccc(Nc2nc(N3CCO[C@H](C)C3)nc3c2CN(C(C)C)C3=O)cc1` [Example 60, 2-[(2R)-2-methylmorpholin-4-yl]-6-(propan-2-yl)-4-[(4-propylphenyl)amino]-5,6-dihydro-7H-pyrrolo[3,4-d]pyrimidin-7-one] was 4.82 µM. The value for `CC(C)N1Cc2c(Nc3ccc(C(F)(F)C(F)(F)F)cc3)nc(N3CCOCC3)nc2C1=O` [Example 83, 2-(morpholin-4-yl)-4-{[4-(pentafluoroethyl)phenyl]amino}-6-(propan-2-yl)-5,6-dihydro-7H-pyrrolo[3,4-d]pyrimidin-7-one] was 3.88 µM; that for `CN(C)C(=O)CN1Cc2nc(C3=CCOCC3)nc(Nc3ccc(C4CCCCC4)cc3)c2C1` [Example 111, 2-{4-[(4-cyclohexylphenyl)amino]-2-(3,6-dihydro-2H-pyran-4-yl)-5,7-dihydro-6H-pyrrolo[3,4-d]pyrimidin-6-yl}-N,N-dimethylacetamide] was 5.35 µM; that for `C[C@@H]1CN(c2nc(Nc3ccc(C4CCCCC4)cc3)c3c(n2)C(=O)N(CCN(C)C)C3)CCO1` [Example 73, 4-[(4-cyclohexylphenyl)amino]-6-[2-(dimethylamino)ethyl]-2-[(2R)-2-methylmorpholin-4-yl]-5,6-dihydro-7H-pyrrolo[3,4-d]pyrimidin-7-one] was 2.73 µM.

`C[C@@H]1CN(c2nc3c(c(Nc4ccc(-c5ccc(OCCCCCC(F)(F)F)cc5)cc4)n2)COC3)CCO1` [Example 94, 2-[(2R)-2-methylmorpholin-4-yl]-N-{4′-[(6,6,6-trifluorohexyl)oxy][1,1′-biphenyl]-4-yl}-5,7-dihydrofuro[3,4-d]pyrimidin-4-amine] gave an EC50 of 1.3 µM. `CCOCCN(C)c1nc(Nc2ccc(C3CCCCC3)cc2)c2c(n1)C(=O)N(C(C)C)C2` [Example 20, 4-[(4-cyclohexylphenyl)amino]-2-[(2-ethoxyethyl)(methyl)amino]-6-(propan-2-yl)-5,6-dihydro-7H-pyrrolo[3,4-d]pyrimidin-7-one] had an EC50 of 2.35 µM. The value for `c1cc(C2CCCCC2)ccc1Nc1nc(N2CCOC(C3CC3)C2)nc2c1COC2` (stereo not drawn) [Example 92, N-(4-cyclohexylphenyl)-2-(2-cyclopropyl-morpholin-4-yl)-5,7-dihydrofuro[3,4-d]pyrimidin-4-amine] was 2.37 µM; that for `CC(=O)NCCC1CN(c2nc(Nc3ccc(C4CCCCC4)cc3)c3c(n2)C(=O)N(C(C)C)C3)CCO1` (stereo not drawn) [Example 39, N-[2-(4-{4-[(4-cyclohexylphenyl)amino]-7-oxo-6-(propan-2-yl)-6,7-dihydro-5H-pyrrolo[3,4-d]pyrimidin-2-yl}morpholin-2-yl)ethyl]acetamide] was 9.9 µM.

As to `CC(C)N1Cc2c(Nc3ccc(CC(F)(F)F)cc3)nc(N3CCO[C@H](C)C3)nc2C1=O` [Example 65, 2-[(2R)-2-methylmorpholin-4-yl]-6-(propan-2-yl)-4-{[4-(2,2,2-trifluoroethyl)phenyl]amino}-5,6-dihydro-7H-pyrrolo[3,4-d]pyrimidin-7-one], the EC50 is 7.65 µM. The value for `CCc1cnc2nc(N3CCO[C@H](C)C3)nc(Nc3ccc(C4CCCCC4)cc3)c2c1` [Example 100, (R)—N-(4-cyclohexylphenyl)-6-ethyl-2-(2-methylmorpholino) pyrido[2,3-d]pyrimidin-4-amine] was 6.3 µM.
